Test results: PubChem BioAssay AID256 (DTP/NCI, 2004)
Toxic doses and inconclusive results are not listed. How the source made its calls: active means survival T/C of 150% or more; inactive means T/C below 125% in these data.

Tested on: CD2F1 mice, L1210 leukemia ip, survival T/C
Assay: NCI In Vivo Anticancer Drug Screen. Data for tumor model L1210 Leukemia (intraperitoneal) in CD2F1 (CDF1) mice
Settings: higher = longer survival
How it was run: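 Transplantable tumor in mice; compound-treated vs vehicle-treated groups. Read-out = treated/control ratio of the measured endpoint.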

[1] = endpoint: mean survival time, dose: 100.0 mg/kg/injection, schedule: Q01DX009 (ip), vehicle: saline with Tween-80
[2] = endpoint: mean survival time, dose: 100.0 mg/kg/injection, schedule: Q04DX003 (ip), vehicle: saline with Tween-80
[3] = endpoint: mean survival time, dose: 200.0 mg/kg/injection, schedule: Q01DX009 (ip), vehicle: saline with Tween-80
[4] = endpoint: mean survival time, dose: 200.0 mg/kg/injection, schedule: Q04DX003 (ip), vehicle: saline with Tween-80
[5] = endpoint: mean survival time, dose: 400.0 mg/kg/injection, schedule: Q01DX009 (ip), vehicle: saline with Tween-80
[6] = endpoint: mean survival time, dose: 50.0 mg/kg/injection, schedule: Q04DX003 (ip), vehicle: saline
[7] = endpoint: mean survival time, dose: 25.0 mg/kg/injection, schedule: Q01DX009 (ip), vehicle: Klucel (hydroxypropylcellulose) (HPC)
[8] = endpoint: mean survival time, dose: 50.0 mg/kg/injection, schedule: Q01DX009 (ip), vehicle: Klucel (hydroxypropylcellulose) (HPC)
[9] = endpoint: mean survival time, dose: 50.0 mg/kg/injection, schedule: Q01DX009 (ip), vehicle: saline with Tween-80
[10] = endpoint: mean survival time, dose: 100.0 mg/kg/injection, schedule: Q04DX003 (ip), vehicle: saline
[11] = endpoint: mean survival time, dose: 200.0 mg/kg/injection, schedule: Q04DX003 (ip), vehicle: saline
[12] = endpoint: mean survival time, dose: 5.0 mg/kg/injection, schedule: Q04DX003 (ip), vehicle: saline with Tween-80

Measured: T/C

CN(C=O)c1ccc(C(=O)NC(CCC(=O)OCc2ccccc2)C(=O)OCc2ccccc2)cc1 (centres undefined)
inactive: [1] 94 % of control | [2] 105 % of control | [3] 89 % of control | [4] 92 % of control | [5] 89 % of control | endpoint: mean survival time, dose: 400.0 mg/kg/injection, schedule: Q04DX003 (ip), vehicle: saline with Tween-80 89 % of control

COc1ccc(C2=NNC(=O)CC2)cc1OC
inactive: endpoint: mean survival time, dose: 12.5 mg/kg/injection, schedule: Q04DX003 (ip), vehicle: saline 107 % of control | endpoint: mean survival time, dose: 25.0 mg/kg/injection, schedule: Q04DX003 (ip), vehicle: saline 115 % of control | [6] 98 % of control

OC1CCCC2CCCNC12 (centres undefined)
inactive: endpoint: mean survival time, dose: 1.25 mg/kg/injection, schedule: Q01DX009 (ip), vehicle: Klucel (hydroxypropylcellulose) (HPC) 109 % of control | endpoint: mean survival time, dose: 3.12 mg/kg/injection, schedule: Q01DX009 (ip), vehicle: saline with Tween-80 98 % of control | endpoint: mean survival time, dose: 6.25 mg/kg/injection, schedule: Q01DX009 (ip), vehicle: saline with Tween-80 88 % of control | endpoint: mean survival time, dose: 12.5 mg/kg/injection, schedule: Q01DX009 (ip), vehicle: saline with Tween-80 103 % of control | [7] 107 % of control | endpoint: mean survival time, dose: 25.0 mg/kg/injection, schedule: Q01DX009 (ip), vehicle: saline with Tween-80 104 % of control | [8] 98 % of control | [9] 110 % of control

CC(=O)Nc1cccc(N)c1
inactive: [10] 102 % of control

CN1C2C=CC(=O)C1C1C(=O)N(c3ccccc3)C(=O)C12 (centres undefined)
inactive: endpoint: median survival time, dose: 12.5 mg/kg/injection, schedule: Q01DX005 (ip), vehicle: Klucel (hydroxypropylcellulose) (HPC) 93 % of control | endpoint: median survival time, dose: 25.0 mg/kg/injection, schedule: Q01DX005 (ip), vehicle: Klucel (hydroxypropylcellulose) (HPC) 98 % of control | endpoint: median survival time, dose: 50.0 mg/kg/injection, schedule: Q01DX005 (ip), vehicle: Klucel (hydroxypropylcellulose) (HPC) 93 % of control | endpoint: median survival time, dose: 100.0 mg/kg/injection, schedule: Q01DX005 (ip), vehicle: Klucel (hydroxypropylcellulose) (HPC) 94 % of control | endpoint: median survival time, dose: 200.0 mg/kg/injection, schedule: Q01DX005 (ip), vehicle: Klucel (hydroxypropylcellulose) (HPC) 95 % of control

O=C(C[P+](c1ccccc1)(c1ccccc1)c1ccccc1)C[P+](c1ccccc1)(c1ccccc1)c1ccccc1
inactive: endpoint: mean survival time, dose: 100.0 mg/kg/injection, schedule: Q01DX001 (ip), vehicle: saline 97 % of control | endpoint: mean survival time, dose: 200.0 mg/kg/injection, schedule: Q01DX001 (ip), vehicle: saline 95 % of control | endpoint: mean survival time, dose: 400.0 mg/kg/injection, schedule: Q01DX001 (ip), vehicle: saline 92 % of control

COc1ccc2nc3cc(Cl)ccc3c(Nc3ccc(NC(C)=O)cc3)c2n1
inactive: endpoint: mean survival time, dose: 25.0 mg/kg/injection, schedule: Q01DX009 (ip), vehicle: other 92 % of control | endpoint: mean survival time, dose: 50.0 mg/kg/injection, schedule: Q01DX009 (ip), vehicle: other 86 % of control | endpoint: mean survival time, dose: 100.0 mg/kg/injection, schedule: Q01DX009 (ip), vehicle: other 94 % of control

CC1(C)CC(=O)C=C(N2CCC(CCCC3CCN(C4=CC(=O)CC(C)(C)C4)CC3)CC2)C1
inactive: [9] 102 % of control | endpoint: mean survival time, dose: 100.0 mg/kg/injection, schedule: Q01DX001 (ip), vehicle: saline with Tween-80 100 % of control | [1] 95 % of control | endpoint: mean survival time, dose: 200.0 mg/kg/injection, schedule: Q01DX001 (ip), vehicle: saline with Tween-80 93 % of control

C=CCCCCCCCCC(=O)NCc1nc2ccccc2[nH]1
inactive: [1] 91 % of control | [3] 96 % of control | [5] 96 % of control

COC1SCCCS1
inactive: endpoint: mean survival time, dose: 12.5 mg/kg/injection, schedule: Q04DX002 (ip), vehicle: saline with Tween-80 97 % of control | endpoint: mean survival time, dose: 25.0 mg/kg/injection, schedule: Q04DX002 (ip), vehicle: saline with Tween-80 108 % of control | endpoint: mean survival time, dose: 50.0 mg/kg/injection, schedule: Q04DX002 (ip), vehicle: saline with Tween-80 105 % of control

C=CCN(CC=C)CC=C
inactive: [10] 95 % of control | [11] 97 % of control | endpoint: mean survival time, dose: 400.0 mg/kg/injection, schedule: Q04DX003 (ip), vehicle: saline 93 % of control

[Cl][Pt]([Cl])[Cl].[NH-]C1CN2CCC1CC2 (centres undefined)
inactive: endpoint: mean survival time, dose: 2.5 mg/kg/injection, schedule: Q04DX003 (ip), vehicle: saline with Tween-80 119 % of control | [12] 122 % of control

CCCC/C=C/C1(O)CCCCC1
inactive: [9] 98 % of control | [1] 103 % of control | [3] 103 % of control

CC(=O)/C(=C\c1ccccc1)CNC1CCCCC1
inactive: endpoint: mean survival time, dose: 6.25 mg/kg/injection, schedule: Q01DX001 (ip), vehicle: saline with Tween-80 96 % of control | endpoint: mean survival time, dose: 12.5 mg/kg/injection, schedule: Q01DX001 (ip), vehicle: saline with Tween-80 104 % of control

O=C(OCC1OC(n2cnc([N+](=O)[O-])n2)C(OC(=O)c2ccccc2)C1OC(=O)c1ccccc1)c1ccccc1 (centres undefined)
inactive: endpoint: median survival time, dose: 18.8 mg/kg/injection, schedule: Q01DX005 (ip), vehicle: Klucel (hydroxypropylcellulose) (HPC) 100 % of control | endpoint: median survival time, dose: 37.5 mg/kg/injection, schedule: Q01DX005 (ip), vehicle: Klucel (hydroxypropylcellulose) (HPC) 102 % of control | endpoint: median survival time, dose: 75.0 mg/kg/injection, schedule: Q01DX005 (ip), vehicle: Klucel (hydroxypropylcellulose) (HPC) 97 % of control | endpoint: median survival time, dose: 140.0 mg/kg/injection, schedule: Q01DX005 (ip), vehicle: Klucel (hydroxypropylcellulose) (HPC) 96 % of control

Cc1ccc(S(=O)(=O)OCC2CC=CCC2COS(=O)(=O)c2ccc(C)cc2)cc1 (centres undefined)
inactive: [6] 102 % of control | [10] 96 % of control | [11] 91 % of control

CC(=O)N1CCC2(CC1)SSC1(CCN(C(C)=O)CC1)S2
inactive: endpoint: mean survival time, dose: 5.0 mg/kg/injection, schedule: Q01DX009 (ip), vehicle: saline with Tween-80 102 % of control | [12] 92 % of control | endpoint: mean survival time, dose: 10.0 mg/kg/injection, schedule: Q01DX009 (ip), vehicle: saline with Tween-80 103 % of control | endpoint: mean survival time, dose: 10.0 mg/kg/injection, schedule: Q04DX003 (ip), vehicle: saline with Tween-80 91 % of control | endpoint: mean survival time, dose: 20.0 mg/kg/injection, schedule: Q01DX009 (ip), vehicle: saline with Tween-80 100 % of control | endpoint: mean survival time, dose: 20.0 mg/kg/injection, schedule: Q04DX003 (ip), vehicle: saline with Tween-80 96 % of control

CCOC(=O)C1CC(c2ccccc2)=NN1c1ccccc1 (centres undefined)
inactive: endpoint: mean survival time, dose: 12.5 mg/kg/injection, schedule: Q01DX009 (ip), vehicle: Klucel (hydroxypropylcellulose) (HPC) 95 % of control | [7] 101 % of control | [8] 102 % of control | endpoint: mean survival time, dose: 100.0 mg/kg/injection, schedule: Q01DX009 (ip), vehicle: Klucel (hydroxypropylcellulose) (HPC) 101 % of control | endpoint: mean survival time, dose: 200.0 mg/kg/injection, schedule: Q01DX009 (ip), vehicle: Klucel (hydroxypropylcellulose) (HPC) 95 % of control | endpoint: mean survival time, dose: 400.0 mg/kg/injection, schedule: Q01DX009 (ip), vehicle: Klucel (hydroxypropylcellulose) (HPC) 98 % of control

CSc1nc(C)cc(Cl)n1
inactive: [9] 94 % of control | [1] 92 % of control | [2] 103 % of control | [3] 95 % of control | [4] 97 % of control

O=c1cc(CBr)c2ccccc2[nH]1
inactive: endpoint: mean survival time, dose: 25.0 mg/kg/injection, schedule: Q04DX003 (ip), vehicle: saline with Tween-80 103 % of control
